In the assay the test system is MCF7-ADRr. In kind it is cell-based. As for the experimental part: The cytotoxic activity was evaluated according to M. C. Alley et al., Cancer Research, 48, 589-601, […].

Molecule `COc1cc2c(c(OC)c1OC)-c1ccc(SC)c(=O)cc1[C@@H](NC(C)=O)CC2` [Thiocolchicine] came in with an MCF7-ADRr/MCF7 of 20000.

The values above are taken from patent publication US6627774B2, “N-deacetylthiocolchicine derivatives and pharmaceutical compositions containing them” (Indena S.p.A., priority 2001, dated 2003).
